Test results reported in US6436921B1, “Carbapenem derivatives and a preparation method thereof” (Korea Institute of Science and Technology, priority 1997, dated 2002).
≈ marks a conversion by molar mass, not a printed value.

Tests used:
[1] = test system: Staphylococcus aureus 503; test: Antibacterial activity test (agar dilution MIC); format: cell-based; conditions: Staphylococcus aureus 503, agar
Method: (§1) Gram-positive Streptococcus and Staphylococcus and Gram-negative Escherichia coli, Pseudomonas, Salmonella, Klebsiella and Enterobacter were selected for the test. After the cells were diluted and cultured in agar, the compounds of the present invention were treated to obtain the minimum inhibitory concentration in the units of μg/ml.

[2] = test system: Pseudomonas aeruginosa 9027; test: Antibacterial activity test (agar dilution MIC); format: cell-based; conditions: Pseudomonas aeruginosa 9027, agar
Method: as §1

[3] = test system: Enterobacter cloacae 1321E; test: Antibacterial activity test (agar dilution MIC); format: cell-based
Method: as §1

[4] = test system: Klebsiella aerogenes 1522E; test: Antibacterial activity test (agar dilution MIC); format: cell-based
Method: as §1

Escherichia coli DC2 = test: Antibacterial activity test (agar dilution MIC); format: cell-based
Method: as §1

[5] = test system: Streptococcus pyogenes 308A; test: Antibacterial activity test (agar dilution MIC); format: cell-based
Method: as §1

Escherichia coli 078 [6] = test: Antibacterial activity test (agar dilution MIC); format: cell-based; conditions: Escherichia coli 078, agar
Method: as §1

[7] = test system: Streptococcus pyogenes 77A; test: Antibacterial activity test (agar dilution MIC); format: cell-based
Method: as §1

[8] = test system: Pseudomonas aeruginosa 1771; test: Antibacterial activity test (agar dilution MIC); format: cell-based; conditions: Pseudomonas aeruginosa 1771, agar
Method: as §1

Escherichia coli 1507E = test: Antibacterial activity test (agar dilution MIC); format: cell-based
Method: as §1

[9] = test system: Streptococcus faecium MD8b; test: Antibacterial activity test (agar dilution MIC); format: cell-based
Method: as §1

[10] = test system: Staphylococcus aureus 285; test: Antibacterial activity test (agar dilution MIC); format: cell-based; conditions: Staphylococcus aureus 285, agar
Method: as §1

[11] = test system: Staphylococcus aureus SG511; test: Antibacterial activity test (agar dilution MIC); format: cell-based
Method: as §1

Klebsiella oxytoca 1082E = test: Antibacterial activity test (agar dilution MIC); format: cell-based
Method: as §1

Escherichia coli DC0 = test: Antibacterial activity test (agar dilution MIC); format: cell-based
Method: as §1

Salmonella typhimurium = test: Antibacterial activity test (agar dilution MIC); format: cell-based
Method: as §1

[12] = test system: Pseudomonas aeruginosa 1771M; test: Antibacterial activity test (agar dilution MIC); format: cell-based
Method: as §1

Enterobacter cloacae P99 = test: Antibacterial activity test (agar dilution MIC); format: cell-based
Method: as §1

[13] = test system: Pseudomonas aeruginosa 1592E; test: Antibacterial activity test (agar dilution MIC); format: cell-based
Method: as §1

Escherichia coli TEM = test: Antibacterial activity test (agar dilution MIC); format: cell-based; conditions: for Minimum inhibitory concentration: Escherichia coli TEM, agar
Method: as §1

[14] = target: DHP-I (renal dehydropeptidase-I) (Homo sapiens, UniProt P16444); test: in vitro; conditions: renal enzyme DHP-I
[15] = Bioavailability test, subcutaneous injection to mice; format: in vivo
Escherichia coli 078 [16] = test: PD50 test using mice; format: in vivo; design: PD50: unit not given beside the values; conditions: Escherichia coli 078
Description: (§2) This means that ⅓ of the amount of the compound 10 has the same effect as meropenem.
(§3) Streptococcus pyrogenes A 77 and Escherichia coli 078 were selected as gram-positive and gram-negative strains, respectively.

[17] = test system: Streptococcus pyrogenes A 77; test: PD50 test using mice; format: in vivo; design: PD50: unit not given beside the values; conditions: Streptococcus pyrogenes A 77
Description: as §2, §3

[18] = read-out: Minimum inhibitory concentration

Chain of DHP-I (renal dehydropeptidase-I) (P16444 17-385): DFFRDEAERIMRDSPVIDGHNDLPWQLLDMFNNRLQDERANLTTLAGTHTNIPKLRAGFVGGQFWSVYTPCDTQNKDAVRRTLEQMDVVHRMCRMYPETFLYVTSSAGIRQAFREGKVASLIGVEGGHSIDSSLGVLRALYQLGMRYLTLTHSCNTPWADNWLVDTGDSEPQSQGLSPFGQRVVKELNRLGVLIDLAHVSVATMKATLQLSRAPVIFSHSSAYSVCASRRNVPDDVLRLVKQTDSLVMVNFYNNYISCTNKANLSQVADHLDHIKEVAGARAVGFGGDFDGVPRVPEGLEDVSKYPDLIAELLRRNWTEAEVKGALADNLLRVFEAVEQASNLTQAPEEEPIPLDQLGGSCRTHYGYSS

Compound | Minimum inhibitory concentration [1] [µg/mL] | Minimum inhibitory concentration [2] [µg/mL] | Minimum inhibitory concentration [3] [µg/mL] | Minimum inhibitory concentration [4] [µg/mL] | Minimum inhibitory concentration (Escherichia coli DC2) [µg/mL] | Minimum inhibitory concentration [5] [µg/mL] | Minimum inhibitory concentration (Escherichia coli 078 [6]) [µg/mL] | Minimum inhibitory concentration [7] [µg/mL] | Minimum inhibitory concentration [8] [µg/mL] | Minimum inhibitory concentration (Escherichia coli 1507E) [µg/mL] | Minimum inhibitory concentration [9] [µg/mL] | Minimum inhibitory concentration [10] [µg/mL] | Minimum inhibitory concentration [11] [µg/mL] | Minimum inhibitory concentration (Klebsiella oxytoca 1082E) [µg/mL] | Minimum inhibitory concentration (Escherichia coli DC0) [µg/mL] | Minimum inhibitory concentration (Salmonella typhimurium) [µg/mL] | Minimum inhibitory concentration (Enterobacter cloacae P99) [µg/mL] | Minimum inhibitory concentration [13] [µg/mL] | Minimum inhibitory concentration (Escherichia coli TEM) [µg/mL] | further results
CNS(=O)(=O)CCNC(=O)[C@@H]1C[C@H](SC2=C(C(=O)O)N3C(=O)[C@H]([C@@H](C)O)[C@H]3[C@H]2C)CN1 [Compound 11] | – | – | – | – | – | – | – | – | – | – | – | – | – | – | – | – | – | – | – | MIC [1, 18]: 0.098 µg/mL (≈ 0.206 µM); MIC [2, 18]: 0.391 µg/mL (≈ 0.82 µM); MIC [3, 18]: 0.025 µg/mL (≈ 0.0525 µM); MIC [4, 18]: 0.049 µg/mL (≈ 0.103 µM); MIC (Escherichia coli DC2; [18]): 0.025 µg/mL (≈ 0.0525 µM); MIC [5, 18]: 0.013 µg/mL (≈ 0.0273 µM); MIC (Escherichia coli 078 [6]; [18]): 0.025 µg/mL (≈ 0.0525 µM); MIC [7, 18]: 0.004 µg/mL (≈ 0.00839 µM); MIC [8, 18]: 0.195 µg/mL (≈ 0.409 µM); MIC (Escherichia coli 1507E; [18]): 0.013 µg/mL (≈ 0.0273 µM); MIC ([9]; Enterococcus faecium, read-out: Minimum inhibitory concentration): 6.25 µg/mL (≈ 13.1 µM); MIC [10, 18]: 0.195 µg/mL (≈ 0.409 µM); MIC [11, 18]: 0.098 µg/mL (≈ 0.206 µM); MIC (Klebsiella oxytoca 1082E; [18]): 0.049 µg/mL (≈ 0.103 µM); MIC (Escherichia coli DC0; [18]): 0.025 µg/mL (≈ 0.0525 µM); MIC (Salmonella typhimurium; Salmonella enterica, read-out: Minimum inhibitory concentration): 0.025 µg/mL (≈ 0.0525 µM); MIC ([12]; Pseudomonas aeruginosa, 1771M, read-out: Minimum inhibitory concentration): 0.195 µg/mL (≈ 0.409 µM); MIC (Enterobacter cloacae P99; [18]): 0.049 µg/mL (≈ 0.103 µM); MIC [13, 18]: 0.195 µg/mL (≈ 0.409 µM); MIC (Escherichia coli TEM; Escherichia coli, read-out: Minimum inhibitory concentration): 0.013 µg/mL (≈ 0.0273 µM)
C[C@@H](O)[C@H]1C(=O)N2C(C(=O)O)=C(S[C@@H]3CN[C@H](C(=O)NCCS(=O)(=O)NCCO)C3)[C@H](C)[C@H]12 [Compound 13] | 0.098 (≈ 0.193 µM) | 1.563 (≈ 3.09 µM) | 0.013 (≈ 0.0257 µM) | 0.025 (≈ 0.0493 µM) | 0.025 (≈ 0.0493 µM) | 0.013 (≈ 0.0257 µM) | 0.013 (≈ 0.0257 µM) | 0.007 (≈ 0.0138 µM) | 1.563 (≈ 3.09 µM) | 0.025 (≈ 0.0493 µM) | 12.5 (≈ 24.7 µM) | 0.195 (≈ 0.385 µM) | 0.195 (≈ 0.385 µM) | 0.049 (≈ 0.0967 µM) | 0.025 (≈ 0.0493 µM) | 0.025 (≈ 0.0493 µM) | 0.049 (≈ 0.0967 µM) | 1.563 (≈ 3.09 µM) | 0.013 (≈ 0.0257 µM) | Minimum inhibitory concentration ([12]; Pseudomonas aeruginosa 1771M, agar): 0.391 µg/mL (≈ 0.772 µM)
C[C@@H](O)[C@H]1C(=O)N2C(C(=O)O)=C(S[C@@H]3CN[C@H](C(=O)NCCS(=O)(=O)N4CCCC4)C3)[C@H](C)[C@H]12 [Compound 15] | 0.195 (≈ 0.377 µM) | 0.391 (≈ 0.757 µM) | 0.025 (≈ 0.0484 µM) | 0.049 (≈ 0.0948 µM) | 0.049 (≈ 0.0948 µM) | 0.013 (≈ 0.0252 µM) | 0.025 (≈ 0.0484 µM) | 0.007 (≈ 0.0135 µM) | 0.781 (≈ 1.51 µM) | 0.025 (≈ 0.0484 µM) | 12.5 (≈ 24.2 µM) | 0.195 (≈ 0.377 µM) | 0.195 (≈ 0.377 µM) | 0.098 (≈ 0.19 µM) | 0.025 (≈ 0.0484 µM) | 0.049 (≈ 0.0948 µM) | 0.049 (≈ 0.0948 µM) | 0.391 (≈ 0.757 µM) | 0.025 (≈ 0.0484 µM) | –
C[C@@H](O)[C@H]1C(=O)N2C(C(=O)O)=C(SCCN=CN)C[C@H]12 [imipenem, reference compound] | – | – | – | – | – | – | – | – | – | – | – | – | – | – | – | – | – | – | – | half-life [14]: 30 min
C[C@@H](O)[C@H]1C(=O)N2C(C(=O)O)=C(S[C@@H]3CN[C@H](C(=O)N(C)C)C3)[C@H](C)[C@H]12 [meropenem, reference compound] | – | – | – | – | – | – | – | – | – | – | – | – | – | – | – | – | – | – | – | Cmax [15]: 7600 ± 550 ng/mL; T1/2 [15]: 14.4 ± 13.2 min; Tmax [15]: 12.6 ± 2.4 min; AUC ([15]; mouse, in vivo, sc, AUC 0-2 hr): 3290 ± 290 ng·h/mL; PD50 (Escherichia coli 078 [16]): 1.24; PD50 [17]: 7.16
